According to US20150253591A1, “DYE COMPOSITION FOR ELECTROWETTING DISPLAY AND ELECTROWETTING DISPLAY DEVICE” (FUJIFILM CORPORATION, priority 2012, published 2015):

Assays:
Assay type in all cases: physicochemical
[1] = Relative dielectric constant of nonpolar solvent; details: 1 kHz, 20° C. and 40% RH
Method: The relative dielectric constant is determined by injecting a nonpolar solvent in a glass cell with a 10-μm cell gap provided with an ITO transparent electrode, and measuring the electrical capacity of the obtained cell using a 2353LCR METER manufactured by NF Corporation (measurement frequency: 1 kHz) at 20° C. and 40% RH.

[2] = Solubility of dye in nonpolar solvent; details: for Solubility Dihexyl ether: in dihexyl ether at 25° C. and 0.1 MPa; for Solubility n-Decane: in n-decane at 25° C. and 0.1 MPa
Method: Each of the prepared 20% by mass solutions (dye compositions) was heated at 50° C. and then left standing at room temperature for 12 hours to obtain a supernatant liquid. The amount of the unsolved dye was weighed and the solubility of each pigment in dihexyl ether or n-decane at 25° C. and 0.1 MPa was calculated.

[3] = Low temperature suitability of dye composition; parameters: key: A dye composition was maintained in a liquid state.; B: A dye composition was not maintained in a liquid state, and changed to a solid state; details: -41° C. for 12 hours; for Low temperature suitability, Dihexyl ether (present invention): 20% by mass dye in dihexyl ether; for Low temperature suitability, Dipentyl ether (present invention): 20% by mass dye in dipentyl ether; for Low temperature suitability, Decane (comparative): 20% by mass dye in n-decane
Method: Each dye composition was placed in a vial, and the vial was left standing in an ice bath (calcium chloride+ice) at −41° C. for 12 hours. The condition of each dye composition after standing was observed and evaluated according to the following evaluation criteria.
A: A dye composition was maintained in a liquid state.
B: A dye composition was not maintained in a liquid state, and changed to a solid state.

[4] = High temperature suitability of dye composition; details: 180° C. for 2 hours without a cap; for High temperature suitability, Dihexyl ether (present invention): 20% by mass dye in dihexyl ether; for High temperature suitability, Dipentyl ether (present invention): 20% by mass dye in dipentyl ether; for High temperature suitability, Decane (comparative): 20% by mass dye in n-decane
Method: Each dye composition was placed in a vial, and the vial was left standing in an oil bath without a cap at 180° C. for 2 hours. The mass of the vial after standing was weighed and evaluated according to the following evaluation criteria.
A: Decrease in the mass of the vial was less than 10%.
B: Decrease in the mass of the vial was 10% or more.

## CCCCCOCCCCC [dipentyl ether]
[1]
  relative dielectric constant ∈r: 2.1

## CCCCCCCOCCCCCCC [diheptyl ether]
[1]
  relative dielectric constant ∈r: 2.1

## C1CCC(OC2CCCCC2)CC1 [dicyclohexyl ether]
[1]
  relative dielectric constant ∈r: 2.1

## CCCCC(CC)CN(CC(CC)CCCC)c1ccc(/N=C2/C(C)=Nn3nc(C(C)(C)C)nc32)cc1 (stereo not drawn) [Dye P-2]
[2]
  Solubility Dihexyl ether: 20 or more % by mass
  Solubility n-Decane: 20 or more % by mass
[3]
  Low temperature suitability, Dihexyl ether (present invention): A
  Low temperature suitability, Dipentyl ether (present invention): A
  Low temperature suitability, Decane (comparative): B
[4]
  High temperature suitability, Dihexyl ether (present invention): A (Decrease in the mass of the vial was less than 10%.)
  High temperature suitability, Dipentyl ether (present invention): A (Decrease in the mass of the vial was less than 10%.)
  High temperature suitability, Decane (comparative): B (Decrease in the mass of the vial was 10% or more.)

## CCCCCCOCCCCCC [dihexyl ether]
[1]
  relative dielectric constant ∈r: 2.1

## CCCCC(CC)CN(CC(CC)CCCC)c1ccc(/C=C2\C(=O)ON=C2C(C)(C)C)c(C)c1 (stereo not drawn) [Dye P-1]
[2]
  Solubility Dihexyl ether: 20 or more % by mass
  Solubility n-Decane: 20 or more % by mass
[3]
  Low temperature suitability, Dihexyl ether (present invention): A
  Low temperature suitability, Dipentyl ether (present invention): A
  Low temperature suitability, Decane (comparative): B
[4]
  High temperature suitability, Dihexyl ether (present invention): A (Decrease in the mass of the vial was less than 10%.)
  High temperature suitability, Dipentyl ether (present invention): A (Decrease in the mass of the vial was less than 10%.)
  High temperature suitability, Decane (comparative): B (Decrease in the mass of the vial was 10% or more.)

## CCCCCCCCCCCCOCCCCCCCCCCCC [didodecyl ether]
[1]
  relative dielectric constant ∈r: 2.1
